Data taken from patent US20130245126A1, “GERANYLGERANYLACETONE FORMULATIONS AND RETINAL DELIVERY THEREOF” (COYOTE PHARMACEUTICALS, INC., priority 2012, published 2013).
Several values for one entry are separate records, joined by “and”; a condition that tells them apart may be missing. Equal entries are not always repeated. Where two headings read alike, the source gives them in different places.

Legend:
[1] = Intraocular GGA levels, topical ocular 5% GGA versus 200 mg/kg oral; format: in vivo; conditions: topical ocular composition of 5% GGA vs 200 mg/kg GGA orally
Source text: The level achieved thereby into the ocular tissue was many-folds more, for example, about 5 times more than that achieved by systemic delivery by oral administration. […] Such is even more unexpected in view of the eye being a immunprotected organ which is predisposed to impede compounds from getting into the ocular tissue and to remove any compound entered into it.

[2] = Ocular, retinal delivery of GGA by eye drop compared to systemic (PO) delivery, AUC (Example 21); format: in vivo; conditions: for Kp(eye ball) / Kp(retina): 180 mg/kg PO
HSP70 [3] = assay: HSP70 analysis by ELISA in rat eyes after eye drops (Example 17, Cohort 2); format: in vivo; conditions: for Ratio: compound treated/vehicle treated, Average (AVE): HSP70, average of 4 rats; for Left (compound treated) AVE: HSP70, average of the left-eye values of Table 3 (pg/ml there); for Ratio treated eye/vehicle treated eye: HSP70, individual rat, left (compound) vs right (vehicle) eye; for HSP70: individual rat, compound-treated left eye, 5% eye drop 0.25 mg/eye per dose hourly, harvest time not stated
Description: (§1) In Cohort 2 the efficacy of Formulation 102 was tested against Formulation 101 and vehicle controls at different time points.
Cohort 2: HSP70 analysis for ELISA only
(§2) • Route: topical eye drop formulation • Frequency: 4 or 8 doses, every 1 hour • Dose Administration : under isofluorane anesthesia (2.5%) • Dose Volume: 5 μL in each eye
(§3) • Species: Rat • Strain: Sprague-Dawley • Supplier: Harlan • Sex: Male • Weight at Initiation: 200 to 220 g • Number of Animals: 12 for Cohort 1, 26 for Cohort 2

HSP70 [4] = assay: HSP70 induction in eye balls by eye drops, ELISA normalized by total protein (Example 18); format: in vivo, Rat
Description: Eye drops were applied every hour either for 4 hours or for 8 hours. Animals were euthanized 4 hours, 8 hours or 24 hours after the first dosing, and the eye balls collected on ice. Eyes were homogenized with a polytron homogenizer in a standard lysis buffer containing proteinase inhibitors. HSP70 was quantified by a commercially available ELISA kit and normalized by total protein concentration in the sample.

[5] = Rat ocular pharmacokinetics: GGA concentration in eye balls after topical eye drops (LC-MS/MS); format: in vivo; conditions: for Mean of Duplicate / R/L: per rat; for Concentration: single determination; for R/L: ratio of right to left eye concentration
Description: as §1, §2, §3
Eye drops were applied every hour either for 4 hours or for 8 hours. Animals were euthanized 4 hours and 8 hours after the first dosing, and the eye balls collected on dry ice. Eyes were homogenized with a polytron homogenizer in ethanol. GGA was quantified in the eye ball lysates by liquid chromatography-tandem mass spectroscopy.

[6] = contralateral eye, 8 doses, group average of Table 7 means (ng/g there), in ng/g
[7] = left (treated) eye, 4 doses, harvest 4 h
[8] = left (treated) eye, 8 doses, harvest 8 h
[9] = left (treated) eye, 4 hourly doses 0.25 mg/eye, harvest 4 h
[10] = left (treated) eye, 8 hourly doses 0.25 mg/eye, harvest 8 h
[11] = right (contralateral) eye, 4 doses, harvest 4 h
[12] = right (contralateral) eye, 8 doses, harvest 8 h
[13] = treated eye, 8 doses, group average of Table 7 means (ng/g there), in ng/g

Which “levels of geranylgeranyl acetone achieved intraocularly, topical vs oral” value [1] does the source give for CC(=O)CCC=C(C)CC/C=C(\C)CC/C=C(\C)CCC=C(C)C (mixture of isomers) [GGA, Geranylgeranyl acetone] here?
The value was “about 5 fold”.

What about the “delivery into the retina and the eyeball” value ([2]; eye drop) of the same compound?
The value was “effective delivery”.

With CC(=O)CCC=C(C)CC/C=C(\C)CC/C=C(\C)CCC=C(C)C (mixture of isomers) [CNS-101, cis-trans geranylgeranyl acetone] as the compound, how does the “Ratio: compound treated/vehicle treated, Average (AVE)” value (HSP70 [3]) read?
The value was 1.665.

What about the “Left (compound treated) AVE” value (HSP70 [3]) of the same compound?
Its value is 952.4506.

And the “Ratio treated eye/vehicle treated eye” value (HSP70 [3])?
Its value is 1.003 and 2.135 and 1.544 and 1.976.

What about the HSP70 (HSP70 [3]) of the same compound?
The HSP70 was 589.4561 pg/mL and 1023.901 pg/mL and 1211.234 pg/mL and 985.2114 pg/mL.

And the “HSP70 expression in eye balls, mean ± SD” value (HSP70 [4]; topical ocular 5% CNS-101, 4 hours)?
Its value is 50.7 ± 8.01 pg/mg protein.

What about the “HSP70 expression in eye balls, mean ± SD” value (HSP70 [4]; topical ocular 5% CNS-101, 8 hours) of the same compound?
Its value is 55.9 ± 11.2 pg/mg protein.

And the “HSP70 expression in eye balls, mean ± SD” value (HSP70 [4]; topical ocular 5% CNS-101, 24 hours)?
The value was 50.5 ± 10.8 pg/mg protein.

What about the “contra/ipsi AVE” value ([5]; 4 doses, 4 h) of the same compound?
Its value is 0.349.

What about the “contra/ipsi AVE” value ([5]; 8 doses, 8 h) of the same compound?
The value was 0.1718.

What about the “4 h contra AVE” value ([5]; contralateral eye, 4 doses, group average of Table 7 means (ng/g there), in ng/g) of the same compound?
Its value is 5856.333.

And the “8 h contra AVE” value [5, 6]?
The value was 2986.667.

And the “Mean of Duplicate” value [5, 7]?
The value was 14722 ng/g and 15163 ng/g and 19992 ng/g.

What about the “Mean of Duplicate” value [5, 8] of the same compound?
Its value is 18546 ng/g and 13199 ng/g and 18795.5 ng/g.

And the “Concentration” value [5, 9]?
Its value is 14635 ng/g and 14809 ng/g and 15206 ng/g and 15120 ng/g and 19608 ng/g and 20376 ng/g.

And the “Concentration” value [5, 10]?
The value was 18947 ng/g and 18145 ng/g and 12879 ng/g and 13519 ng/g and 18953 ng/g and 18638 ng/g.

What about the concentration at 4 h ([5]; male, Sprague-Dawley, rat, eye balls, topical, CNS-101 concentrations in eye balls, mean ± SD, 4 × 5 ml 5% CNS-101, measured after 4 hrs) of the same compound?
Its concentration at 4 h is 16600 ng/g.

What about the concentration at 8 h ([5]; male, Sprague-Dawley, rat, eye balls, topical, CNS-101 concentrations in eye balls, mean ± SD, 8 × 5 ml 5% CNS-101, measured after 8 hrs) of the same compound?
Its concentration at 8 h is 16800 ng/g.

What about the R/L ([5]; 4 doses, 4 h) of the same compound?
Its R/L is 0.4357 and 0.2213 and 0.3901.

And the R/L ([5]; 8 doses, 8 h)?
The R/L was 0.1996 and 0.1209 and 0.1949.

And the “Mean of Duplicate” value [5, 11]?
Its value is 6414.5 ng/g and 3355 ng/g and 7799.5 ng/g.

And the “Mean of Duplicate” value [5, 12]?
Its value is 3701 ng/g and 1596 ng/g and 3663 ng/g.

And the “4 h ispi AVE” value ([5]; treated eye, 4 doses, group average of Table 7 means (ng/g there), in ng/g)?
Its value is 16625.67.

What about the “8 h ispi AVE” value [5, 13] of the same compound?
The value was 16846.83.

And the “Kp(eye ball)” value [2]?
The value was 0.71.

And the “Kp(retina)” value [2]?
The value was 2.21.

What does the source list for CC(=O)CC/C=C(\C)CC/C=C(\C)CC/C=C(\C)CCC=C(C)C [CNS-102, (5E, 9E, 13E) geranylgeranyl acetone]?
Ratio: compound treated/vehicle treated, Average (AVE) (HSP70 [3]): 1.089; Left (compound treated) AVE (HSP70 [3]): 681.9337; Ratio treated eye/vehicle treated eye (HSP70 [3]): 0.5953 and 1.239 and 1.26 and 1.263; HSP70 (HSP70 [3]): 685.1953 pg/mL and 757.1621 pg/mL and 583.588 pg/mL and 701.7893 pg/mL; contra/ipsi AVE ([5]; 4 doses, 4 h): 0.3052; contra/ipsi AVE ([5]; 8 doses, 8 h): 0.2617; 8 h contra AVE [5, 6]: 2105; Mean of Duplicate [5, 7]: 30309 ng/g and 21828 ng/g and 17344 ng/g; Mean of Duplicate [5, 8]: 10746 ng/g and 8395 ng/g and 7168.5 ng/g; Concentration [5, 9]: 32854 ng/g and 27764 ng/g and 21506 ng/g and 22150 ng/g and 17494 ng/g and 17194 ng/g; Concentration [5, 10]: 12094 ng/g and 9398 ng/g and 8505 ng/g and 8285 ng/g and 7547 ng/g and 6790 ng/g; concentration at 4 h ([5]; male, Sprague-Dawley, rat, eye ball (contralateral eye), topical, 0.25 mg/eye, contralateral eye, 4 doses, group average of Table 7 means (ng/g there), read-out: 4 h contra AVE): 7260 ng/g; concentration at 4 h ([5]; male, Sprague-Dawley, rat, eye ball (treated, ipsilateral eye), topical, 0.25 mg/eye, treated eye, 4 doses, group average of Table 7 means (ng/g there), read-out: 4 h ispi AVE): 23200 ng/g; R/L ([5]; 4 doses, 4 h): 0.3848 and 0.2037 and 0.327; R/L ([5]; 8 doses, 8 h): 0.1144 and 0.2267 and 0.444; Mean of Duplicate [5, 11]: 4447 ng/g and 5672 ng/g and 11663.5 ng/g; Mean of Duplicate [5, 12]: 1229 ng/g and 1903.5 ng/g and 3182.5 ng/g; 8 h ispi AVE [5, 13]: 8769.833; Kp(eye ball) [2]: 0.19; Kp(retina) [2]: 0.79
